Results from article PMC8158703, “The Glitazone Class of Drugs as Carbonic Anhydrase Inhibitors—A Spin-Off Discovery from Fragment Screening” (Molecules, 2021).
Where a name gives a salt, the structure may show the parent alone.

Key:
[1] = target: T1, hCA II (Homo sapiens, UniProt P00918); test: Stopped flow CO2 hydrase assay; type: biochemical; settings: mean from three assays, errors ±10%
T1 construct: made in house
Experimental: (§1) In addition to the ubiquitous hCA II, all other catalytically active hCA enzymes (I, IV, VA, VB, VI, VII, IX, XII, XIII and XIV) were assessed, providing a comprehensive profile of CA enzyme inhibition, Table 2. […] Different CAs have different expression profiles and cell locations. […] A comparison between hCA VII and hCA II has identified 7 residue differences (S65A, Q67N, D69E, K91I, A135V, S136Q, S204L) among the 23 residues within the active site cavity.
(§2) An Applied Photophysics stopped-flow instrument was used for assaying the inhibition of the CA catalysed CO2 hydration reaction. […] The uncatalyzed rates were determined in the same manner and subtracted from the total observed rates. […] Inhibitor and enzyme solutions were preincubated together for 15 min at room temperature prior to assay to allow for the formation of the enzyme inhibitor complex. The inhibition constants were obtained by nonlinear least squares methods using PRISM 3 (GraphPad Software Inc, San Diego, CA, USA). […] The catalytic activity (in the absence of inhibitors) of the different enzymes was calculated from Lineweaver–Burk plots and represent the mean from at least three different determinations. […] Enzymes used here were recombinant ones, prepared and purified as described earlier.

[2] = target: T2, hCA VII (Homo sapiens, UniProt P43166); test: Stopped flow CO2 hydrase assay; type: biochemical; settings: mean from three assays, errors ±10%
T2 construct: made in house
T2 sequence (P43166 whole entry): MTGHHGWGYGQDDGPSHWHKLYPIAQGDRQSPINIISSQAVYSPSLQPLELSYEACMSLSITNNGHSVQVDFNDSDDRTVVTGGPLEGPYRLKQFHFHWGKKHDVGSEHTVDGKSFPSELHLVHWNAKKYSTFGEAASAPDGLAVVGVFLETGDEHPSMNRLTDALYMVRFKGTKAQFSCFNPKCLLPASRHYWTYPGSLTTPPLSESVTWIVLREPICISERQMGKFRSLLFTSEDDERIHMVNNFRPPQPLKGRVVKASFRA
Experimental: as §1, §2

[3] = target: T3, hCA IX (Homo sapiens, UniProt Q16790); test: Stopped flow CO2 hydrase assay; type: biochemical; settings: mean from three assays, errors ±10%
T3 construct: made in house
Experimental: as §1, §2

[4] = target: T4, hCA I (Homo sapiens, UniProt P00915); test: Stopped flow CO2 hydrase assay; type: biochemical; settings: mean from three assays, errors ±10%
T4 construct: made in house
T4 sequence (P00915 whole entry): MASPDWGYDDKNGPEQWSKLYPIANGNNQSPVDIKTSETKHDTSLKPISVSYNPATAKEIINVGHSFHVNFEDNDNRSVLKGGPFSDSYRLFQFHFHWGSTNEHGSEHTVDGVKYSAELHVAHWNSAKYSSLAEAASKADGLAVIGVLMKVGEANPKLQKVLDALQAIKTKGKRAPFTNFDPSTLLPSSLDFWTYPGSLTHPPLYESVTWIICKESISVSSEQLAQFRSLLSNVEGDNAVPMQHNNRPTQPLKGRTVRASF
Experimental: as §1, §2

[5] = target: T5, hCA IV (Homo sapiens, UniProt P22748); test: Stopped flow CO2 hydrase assay; type: biochemical; settings: mean from three assays, errors ±10%
T5 construct: made in house
T5 sequence (P22748 19-312): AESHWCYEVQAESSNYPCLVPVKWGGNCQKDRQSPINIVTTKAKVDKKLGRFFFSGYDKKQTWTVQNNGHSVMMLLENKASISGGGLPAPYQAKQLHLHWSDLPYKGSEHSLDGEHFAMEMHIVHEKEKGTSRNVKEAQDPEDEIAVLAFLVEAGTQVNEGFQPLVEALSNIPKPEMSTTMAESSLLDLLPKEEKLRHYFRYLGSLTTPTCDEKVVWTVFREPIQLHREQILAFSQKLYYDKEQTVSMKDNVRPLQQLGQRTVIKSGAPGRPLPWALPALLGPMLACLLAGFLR
Experimental: as §1, §2

[6] = target: T6, hCA VI (Homo sapiens, UniProt P23280); test: Stopped flow CO2 hydrase assay; type: biochemical; settings: mean from three assays, errors ±10%
T6 construct: made in house
T6 sequence (P23280 18-308): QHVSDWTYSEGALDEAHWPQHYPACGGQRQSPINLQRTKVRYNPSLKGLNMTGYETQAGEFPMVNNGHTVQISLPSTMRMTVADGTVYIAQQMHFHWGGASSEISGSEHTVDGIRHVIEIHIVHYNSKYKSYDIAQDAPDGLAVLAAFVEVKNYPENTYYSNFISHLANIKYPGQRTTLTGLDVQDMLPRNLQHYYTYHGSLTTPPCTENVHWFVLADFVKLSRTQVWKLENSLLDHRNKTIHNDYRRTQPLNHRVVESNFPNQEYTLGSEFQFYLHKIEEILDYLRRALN
Experimental: (§3) CA enzyme inhibition data was determined by measuring the CA-catalysed hydration of CO2 in the presence of 11–13. In addition to the ubiquitous hCA II, all other catalytically active hCA enzymes (I, IV, VA, VB, VI, VII, IX, XII, XIII and XIV) were assessed, providing a comprehensive profile of CA enzyme inhibition, Table 2. […]. Different CAs have different expression profiles and cell locations. […] A comparison between hCA VII and hCA II has identified 7 residue differences (S65A, Q67N, D69E, K91I, A135V, S136Q, S204L) among the 23 residues within the active site cavity. […] Here, we propose that this further extends to the minimal differences in observed active site compound binding strength between these isozymes. […]. Furthermore, they are considered a validated target for antiobesity drug development, in which they have been proposed to have an involvement in insulin secretion, however this mechanism is not yet fully understood. […]. The appreciable inhibition of the glitazones for the different CA isozymes highlights the potential for CA-mediated off-target effects of these drugs when used clinically, and given the reported polypharmacology observed for these compounds, this may provide an avenue for further understanding of their mechanism of action.
(§4) An Applied Photophysics stopped-flow instrument was used for assaying the inhibition of the CA catalysed CO2 hydration reaction. Phenol red (0.2 mM) was used as indicator, monitored at the absorbance maximum of 557 nm. Reactions were carried out in a HEPES (10 mM, pH 7.4) buffer and NaClO4 (10 mM), for maintaining the ionic strength constant, the ClO4^- anion is not inhibitory against most CA isoforms at 25 °C [62]. […]. Inhibitors were tested in the concentration range of 0.01 nM–100 μM, and at least six traces of the initial 5–10% of the reaction have been used for determining the initial velocity. The uncatalyzed rates were determined in the same manner and subtracted from the total observed rates. Stock solutions of inhibitor (1 mM) were prepared in distilled, deionized water with 10–20% (v/v) DMSO (which is not inhibitory at these concentrations), and dilutions were performed thereafter with the assay buffer. Inhibitor and enzyme solutions were preincubated together for 15 min at room temperature prior to assay to allow for the formation of the enzyme inhibitor complex. The inhibition constants were obtained by nonlinear least squares methods using PRISM 3 (GraphPad Software Inc, San Diego, CA, USA). […]. The catalytic activity (in the absence of inhibitors) of the different enzymes was calculated from Lineweaver–Burk plots and represent the mean from at least three different determinations. Enzyme concentrations in the assay system were in the range of 3.8–9.5 nM. Enzymes used here were recombinant ones, prepared and purified as described earlier.

[7] = target: T7, hCA VA (Homo sapiens, UniProt P35218); test: Stopped flow CO2 hydrase assay; type: biochemical; settings: mean from three assays, errors ±10%
T7 construct: made in house
T7 sequence (P35218 39-305): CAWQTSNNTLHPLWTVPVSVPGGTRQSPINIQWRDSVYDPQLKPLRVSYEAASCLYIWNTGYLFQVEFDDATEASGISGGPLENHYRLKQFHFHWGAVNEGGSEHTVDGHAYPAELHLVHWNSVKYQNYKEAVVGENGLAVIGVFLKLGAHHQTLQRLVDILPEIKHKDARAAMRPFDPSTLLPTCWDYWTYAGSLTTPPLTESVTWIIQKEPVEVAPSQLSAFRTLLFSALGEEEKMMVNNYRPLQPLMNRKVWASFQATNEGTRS
Experimental: as §3, §4

[8] = target: T8, hCA VB (Homo sapiens, UniProt Q9Y2D0); test: Stopped flow CO2 hydrase assay; type: biochemical; settings: mean from three assays, errors ±10%
T8 construct: made in house
T8 sequence (Q9Y2D0 34-317): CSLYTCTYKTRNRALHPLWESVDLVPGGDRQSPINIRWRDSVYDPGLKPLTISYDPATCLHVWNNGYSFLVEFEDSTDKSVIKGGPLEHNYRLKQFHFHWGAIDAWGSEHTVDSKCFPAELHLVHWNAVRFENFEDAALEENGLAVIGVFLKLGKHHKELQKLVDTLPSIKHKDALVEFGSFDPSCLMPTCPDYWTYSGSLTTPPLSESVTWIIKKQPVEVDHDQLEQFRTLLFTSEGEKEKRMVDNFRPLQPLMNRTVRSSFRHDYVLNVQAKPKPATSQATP
Experimental: as §3, §4

[9] = target: T9, hCA XIV (Homo sapiens, UniProt Q9ULX7); test: Stopped flow CO2 hydrase assay; type: biochemical; settings: mean from three assays, errors ±10%
T9 construct: made in house
T9 sequence (Q9ULX7 16-337): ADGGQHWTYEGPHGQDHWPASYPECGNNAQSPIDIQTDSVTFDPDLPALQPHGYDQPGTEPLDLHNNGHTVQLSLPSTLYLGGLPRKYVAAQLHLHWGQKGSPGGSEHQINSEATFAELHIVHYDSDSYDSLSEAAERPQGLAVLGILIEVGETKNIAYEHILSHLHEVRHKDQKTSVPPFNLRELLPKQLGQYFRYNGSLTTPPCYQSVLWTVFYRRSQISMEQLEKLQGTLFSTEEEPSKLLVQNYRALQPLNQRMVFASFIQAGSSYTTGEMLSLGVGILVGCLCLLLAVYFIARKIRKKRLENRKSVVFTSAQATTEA
Experimental: as §3, §4

[10] = target: T10, hCA XIII (Homo sapiens, UniProt Q8N1Q1); test: Stopped flow CO2 hydrase assay; type: biochemical; settings: mean from three assays, errors ±10%
T10 construct: made in house
T10 sequence (Q8N1Q1 whole entry): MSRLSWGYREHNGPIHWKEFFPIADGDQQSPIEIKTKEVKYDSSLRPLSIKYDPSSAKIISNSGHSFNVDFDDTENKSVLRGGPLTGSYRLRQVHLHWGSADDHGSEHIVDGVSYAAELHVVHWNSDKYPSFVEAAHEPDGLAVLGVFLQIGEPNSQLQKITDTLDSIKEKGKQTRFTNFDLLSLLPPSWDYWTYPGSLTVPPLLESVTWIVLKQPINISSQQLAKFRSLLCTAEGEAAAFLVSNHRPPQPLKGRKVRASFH
Experimental: as §3, §4

[11] = target: CA II; settings: CA II hit fragments, SPR; cited from earlier work
[12] = target: T11, hCA XII (Homo sapiens, UniProt O43570); test: Stopped flow CO2 hydrase assay; type: biochemical; settings: mean from three assays, errors ±10%
T11 construct: made in house
T11 sequence (O43570 25-354): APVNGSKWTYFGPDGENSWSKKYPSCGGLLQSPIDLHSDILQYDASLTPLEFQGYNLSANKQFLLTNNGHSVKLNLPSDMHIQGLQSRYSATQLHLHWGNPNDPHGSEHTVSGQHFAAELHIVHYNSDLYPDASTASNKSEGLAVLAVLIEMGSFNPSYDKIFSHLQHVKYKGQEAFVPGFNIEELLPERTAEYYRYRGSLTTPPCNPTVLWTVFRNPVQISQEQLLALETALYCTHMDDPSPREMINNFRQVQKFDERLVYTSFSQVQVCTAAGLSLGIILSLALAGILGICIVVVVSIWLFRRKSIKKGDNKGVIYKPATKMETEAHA
Experimental: as §1, §2

SMILES | Ki [1] [µM] | Ki [3] [µM] | Ki [4] [µM] | Ki [5] [µM] | Ki [6] [µM] | Ki [7] [µM] | Ki [8] [µM] | Ki [9] [µM] | Ki [10] [µM] | Kd [11] [µM] | other results
CCc1ccc(CCOc2ccc(CC3SC(=O)NC3=O)cc2)nc1 (centres unmarked) [Compound 13, 5-[[4-[2-(5-ethyl-2-pyridinyl)ethoxy]phenyl]methyl]-2,4-thiazolidinedione monohydrochloride] | 7.1 | 0.75 | 39.6 | 92.1 | 19.8 | 5.3 | 36.2 | 6.6 | 21.5 |  | Ki [2]: 4.9 µM
Cc1ccnc(S(N)(=O)=O)n1 [Compound 4] |  |  |  |  |  |  |  |  |  | 1.4 | 
Clc1ccccc1OCc1nn[nH]n1 [Compound 5] |  |  |  |  |  |  |  |  |  | 631 | 
Clc1ccc(OCc2nn[nH]n2)cc1 [Compound 6] |  |  |  |  |  |  |  |  |  | 709 | 
C/C(=C\C(=O)O)c1ccc(Cl)cc1 [Compound 1] |  |  |  |  |  |  |  |  |  | 905 | 
CN(CCOc1ccc(CC2SC(=O)NC2=O)cc1)c1ccccn1 (centres unmarked) [Compound 12, 5-[[4-[2-(methyl-2-pyridinylamino)ethoxy]phenyl]methyl]-2,4-thiazolidinedione] | 0.75 | 2.5 | 16.3 | 58.9 | 5.9 | 8.2 | 40.9 | 2.3 | 7.4 |  | Ki [2]: 6.1 µM; Ki [12]: 3.7 µM
Cc1c(C)c2c(c(C)c1O)CCC(C)(COc1ccc(CC3SC(=O)NC3=O)cc1)O2 (racemic) [Compound 11, (±)-5-[4-[(6-Hydroxy-2,5,7,8-tetramethylchroman-2-yl)methoxy]benzyl]-2,4-thiazolidinedione] | 1.3 | 1.3 | 57.2 | > 100 | 46.7 | 12.4 | 28.9 | 16.8 | 32.3 |  | Ki [12]: 0.92 µM
O=C(O)c1cccc(Oc2ccccc2)c1 [Compound 2] |  |  |  |  |  |  |  |  |  | 1280 | 
O=C(O)Cc1cccc(OCc2ccccc2)c1 [Compound 3] |  |  |  |  |  |  |  |  |  | 1080 | 
O=C(CSc1nnc[nH]1)c1ccccc1 [Compound 7] |  |  |  |  |  |  |  |  |  | 194 | 
